Data published in patent US20070271620A1, “Animal model for type II diabetes mellitus and Syndrome X and methods and uses thereof” (priority 2005, published 2007).
“And” between values parts separate entries of the source, which are not always exact repeats. Equal entries are not always repeated. Marks after values point to notes of the source that are not given here.

What was measured:
Format in all cases: in vivo, pig
[1] = test system: cross-bred pigs (Yorkshire×Landrace); test: Hyperinsulinemic euglycemic/hyperglycemic clamp in STZ diabetic pigs
Experimental: (§1) Protocol 2: insulin-mediated hepatic glucose production and whole body glucose uptake were studied with the hyperinsulinemic (1 or 2 mU/kg/minute) euglycemic clamp technique in combination with 6,6-^2H-glucose infusion in six normal and seven STZ (130 mg/kg) diabetic pigs.
Protocol 3: insulin-mediated whole body glucose disposal was studied with the hyperinsulinemic (2 or 8 mU/kg/minute) euglycemic clamp technique in six normal and six STZ (150 mg/kg) diabetic pigs.
Protocol 4: insulin-mediated whole body glucose disposal under influence of acute mass action of plasma glucose was studied with the hyperinsulinemic (2 mU/kg/minute), euglycemic (6 mmol/L) and hyperglycemic (22 mmol/L) clamp technique in four STZ (110 mg/kg) diabetic pigs.
After overnight fasting, at t=0 minute, insulin was administered as a prime—(17 or 34 mU/kg) continuous (1 or 2 mU/kg/minute) infusion for three hours in normal pigs. Simultaneously, a variable infusion of a 33% D-glucose solution was started and adjusted every ten minutes to maintain the plasma glucose concentration at euglycemic levels and a 6,6-^2H-glucose solution was given as a prime—(216 mg) continuous (3.6 mg/minute). Steady-state conditions were achieved within 90 minutes after initiation of the hyperinsulinemic clamp and steady-state calculations were carried out during the last hour of the clamp (t=120, 135, 150, 165 and 180 minutes). In hyperglycemic diabetic pigs, insulin was given as a prime—(34 or 136 mU/kg) continuous (2 or 8 mU/kg/minute) infusion for five hours. After reaching euglycemic levels, a variable infusion of a 33% D-glucose solution was started and adjusted every ten minutes to maintain the plasma glucose concentration at euglycemia. At t=2 hours, 6,6-^2H-glucose was administered as a prime— (216 mg) continuous (3.6 mg/minute) infusion for the last three hours of the clamp in diabetic pigs. Steady-state conditions were achieved during the last hour of the clamp and steady-state calculations were carried out at (t=240, 255, 270, 285 and 300 minutes).
Hyperinsulinemic hyperglycemic clamp experiments were carried out in diabetic pigs only. After overnight fasting, insulin was given as a prime—(34 mU/kg) continuous (2 mU/kg/minute) infusion for five hours. Simultaneously, a variable infusion of a 33% D-glucose solution was started and adjusted every ten minutes to maintain the plasma glucose concentration at hyperglycemia. Steady-state calculations were carried out during the last hour of the clamp (t=240, 255, 270, 285 and 300 minutes).
6,6-^2H-glucose kinetics: Fasting and insulin-mediated rate of appearance (Ra) of glucose was calculated by dividing the 6,6-^2H-glucose infusion rate (mg/minute) by the plasma 6,6-^2H-glucose enrichment (mg/mg %). Insulin-mediated hepatic glucose production was calculated as measured Ra glucose minus exogenous glucose infusion rate. Under hyperglycemic conditions, the rate of disappearance (Rd) of glucose, or whole body glucose uptake was corrected for urinary glucose excretion. This implies that whole body glucose uptake was calculated as measured Ra glucose minus urinary glucose excretion.

[2] = test system: diabetic pigs; test: Plasma insulin response after a standard meal in diabetic pigs two and nine weeks after STZ infusion; details: STZ 140 mg/kg infused for ten minutes, 25 diabetic pigs
Experimental: After 24 hours fasting, a standard meal (523 kJ ME/kg BW^0.75) was fed to the pigs and blood was sampled up to 480 minutes after feeding). Pigs were studied two and nine weeks after streptozotocin (STZ) infusion (140 mg/kg for ten minutes). […] However, as judged by the severity of diabetes (quantified by the 24-hour urinary glucose excretion in relation to standard meal feeding), the recovery/regeneration/hypertrophy of beta-cells takes place in the first three to four weeks after STZ infusion and stops after that time period (see FIG. 6).

[3] = test system: cross-bred pigs (Yorkshire×Landrace); test: 6,6-2H-glucose tracer kinetics (fasting Ra glucose, hepatic glucose production, whole body glucose uptake) in STZ diabetic pigs; details: 130 mg STZ/kg
Experimental: Protocol 1: fasting hepatic glucose production and whole body glucose uptake were studied with 6,6-^2H-glucose infusion in five normal and five STZ (130 mg/kg) diabetic pigs.
as §1
After overnight fasting, a 6,6-^2H-glucose solution was administered as a prime—(72 mg) continuous (1.2 mg/minute) infusion for three hours in normal pigs. In diabetic pigs, 6,6-^2H-glucose was given as an adjusted prime— (216 mg) continuous (3.6 mg/minute) infusion for three hours (Koopmans et al., 1991). Isotopic steady-state conditions were achieved within 90 minutes after initiation of the tracer infusion and steady-state calculations were carried out during the last hour of the tracer infusion (t=120, 135, 150, 165 and 180 minutes). […]
Blood samples for determination of 6,6-^2H-glucose enrichment, glucose and insulin were collected in heparinized tubes (150 USP. U. Lithium Heparin, 10 mL Venoject, Terumo, Leuven, Belgium) and immediately chilled at 0° C. on ice and centrifuged at 4° C. for ten minutes at 3000 rpm. […] Selected ion monitoring, data acquisition and quantitative calculations were performed using the HP Chemstation software. Glucose concentration was determined using the internal standard method (xylose was added as internal standard). The internal standard was monitored at m/z 145. Glucose was monitored at m/z 187 for glucose and m/z 189 for d2-glucose. Glucose enrichments were calculated by dividing the area of the m/z 189 peak and the m/z 187 peak and correcting for natural enrichments. Isotopic enrichment was calculated as tracer-to-tracee ratio after subtracting the isotopic enrichment of a background plasma sample. An aliquot of the 6,6-^2H-glucose infusate was analyzed for the isotope concentration to calculate the actual infusion rate for each infusion experiment. […]

[4] = pigs, STZ 110 mg/kg, 2 mU/kg/minute clamp at euglycemia
[5] = pigs, STZ 110 mg/kg, 2 mU/kg/minute clamp at hyperglycemia
[6] = pigs, STZ 110 mg/kg, clamp at hyperglycemia
[7] = pigs, STZ 130 mg/kg, insulin clamp 2 mU/kg/minute
[8] = pigs, STZ 150 mg/kg, insulin clamp 8 mU/kg/minute

With `CN(N=O)C(=O)N[C@H]1C(O)O[C@H](CO)[C@@H](O)[C@@H]1O` (mixture of isomers) [STZ, streptozotocin] as the compound, how does the “Steady-state glucose infusion rate compared to average in normal pigs” value ([1]; STZ 150 mg/kg, insulin 8 mU/kg/minute) read?
The value was “approximately eight-fold lower”.

And the “Fasting plasma insulin compared to normal and diabetic (1.50 mg STZ/kg) pigs” value ([1]; STZ 110 and 130 mg/kg, on average)?
The value was “two-fold higher”.

What about the “Steady-state glucose infusion rates compared to average in normal pigs” value ([1]; STZ 110 to 130 mg/kg, insulin 2 mU/kg/minute) of the same compound?
The value was “five- to six-fold lower”.

And the “Reduction in insulin action” value ([1]; STZ diabetic pigs)?
The value was roughly 75%.

What about the “Fasting plasma insulin, range” value ([1]; diabetic (150 mg STZ/kg) pigs) of the same compound?
The value was 0-6 mU/L.

What about the “Increase of insulin-mediated whole body glucose disposal at hyperglycemia compared to euglycemia” value ([1]; pigs, STZ 110 mg/kg, 2 mU/kg/minute clamp) of the same compound?
Its value is 16%.

And the Fasting plasma glucose [1, 4]?
Its Fasting plasma glucose is 22.3 ± 2.1 mmol/L.

And the “Steady-state clamp glucose infusion rate (insulin-mediated whole body glucose disposal)” value [1, 4]?
The value was 5.1 mg/kg/min and 5.1 ± 1.0 mg/kg/min.

What about the “Steady-state clamp plasma glucose” value [1, 4] of the same compound?
The value was 6.0 ± 0.1 mmol/L.

And the “Steady-state clamp plasma insulin” value [1, 4]?
Its value is 54 ± 16 mU/L.

What about the “Time to reach euglycemia in diabetic pigs” value (“Time to reach euglycemia” for short) [1, 4] of the same compound?
The value was 139 ± 23 min.

What about the Fasting plasma glucose [1, 5] of the same compound?
The Fasting plasma glucose was 23.0 ± 2.4 mmol/L.

What about the “Insulin-mediated whole body glucose disposal (glucose infusion rate minus urinary glucose excretion)” value [1, 5] of the same compound?
The value was 5.9 mg/kg/min and 5.9 ± 0.8 mg/kg/min.

And the “Steady-state clamp glucose infusion rate” value [1, 5]?
The value was 8.2 ± 0.8*^1) mg/kg/minute.

And the “Steady-state clamp plasma glucose” value [1, 5]?
The value was 22.4 ± 2.6 mmol/L.

What about the “Steady-state clamp plasma insulin” value [1, 5] of the same compound?
The value was 62 ± 19 mU/L.

What about the Fasting plasma insulin ([1]; pigs, STZ 110 mg/kg, clamp at euglycemia) of the same compound?
The Fasting plasma insulin was 17 ± 13 mU/L.

What about the Fasting plasma insulin [1, 6] of the same compound?
Its Fasting plasma insulin is 12 ± 5 mU/L.

And the “Fasting plasma insulin, range” value [1, 6]?
The value was “range (3-21) mU/L”.

And the “Fasting plasma insulin, range” value ([1]; pigs, STZ 130 mg/kg)?
Its value is 1-38 mU/L.

And the “Steady-state clamp glucose infusion rate” value [1, 7]?
Its value is 5.0 ± 1.4 mg/kg/min.

And the “Steady-state clamp plasma glucose” value [1, 7]?
Its value is 6.1 ± 0.8 mmol/L.

And the “Steady-state clamp plasma insulin” value [1, 7]?
Its value is 45 ± 5 mU/L.

What about the “Time to reach euglycemia” value [1, 7] of the same compound?
The value was 145 ± 22 min.

And the Fasting plasma glucose ([1]; pigs, STZ 130 mg/kg, insulin clamp 2 mU/kg/minute, with 6,6-2H-glucose infusion, mean ± SEM)?
Its Fasting plasma glucose is 21.7 ± 1.1 mmol/L.

What about the Fasting plasma insulin ([1]; pigs, STZ 130 mg/kg, insulin clamp 2 mU/kg/minute, mean ± SEM) of the same compound?
The Fasting plasma insulin was 9 mU/L.

And the Fasting plasma insulin ([1]; pigs, STZ 130 mg/kg, insulin clamp 2 mU/kg/minute, mean ± SEM, listed as Streptozotocin)?
Its Fasting plasma insulin is 9 ± 7 mU/L.

And the “Fasting plasma insulin, range” value ([1]; pigs, STZ 130 mg/kg, listed as Streptozotocin)?
The value was “range (1-38) mU/L”.

And the Fasting plasma insulin [1, 8]?
The Fasting plasma insulin was 3 ± 1 mU/L.

What about the “Steady-state clamp glucose infusion rate” value [1, 8] of the same compound?
The value was 3.2 ± 1.0 mg/kg/min.

And the “Steady-state clamp plasma glucose” value [1, 8]?
Its value is 7.5 ± 0.9 mmol/L.

And the “Steady-state clamp plasma insulin” value [1, 8]?
Its value is 228 ± 36 mU/L.

What about the “Time to reach euglycemia” value [1, 8] of the same compound?
Its value is 243 ± 21 min.

And the Fasting plasma glucose ([1]; pigs, STZ 150 mg/kg, insulin clamp 8 mU/kg/minute, no tracer)?
The Fasting plasma glucose was 22.0 ± 0.8 mmol/L.

And the “Overnight fasting plasma glucose compared to normal pigs” value ([1]; three diabetic pig groups (STZ 110, 130 and 150 mg/kg), on average)?
The value was “four-fold greater”.

What about the “Area under the curve for the plasma insulin response (0-480 minutes after meal), nine weeks compared to two weeks after STZ infusion” value [2] of the same compound?
Its value is “two-fold larger”.

What about the “Fasting Ra glucose compared to normal pigs” value [3] of the same compound?
The value was “approximately two-fold greater”.

And the “Insulin-inhibited hepatic glucose production versus normal pigs” value [3]?
The value was “two-fold greater”.

And the “Insulin-stimulated whole body glucose uptake versus normal pigs” value [3]?
The value was “three-fold lower”.
